Here are results for 2 compounds from patent publication US20110104702A1, “Methods for Predicting Tumor Response to Chemotherapy and Selection of Tumor Treatment” (NATIONAL UNIVERSITY HOSPITAL, priority 2008, published 2011).

The subject of one assay is cT3-T4 breast tumors. The experiment in a line: Independent dataset: four cycles of pre-operative single agent docetaxel, pathological response. It is filed as in vivo, human. An excerpt: Next, we applied the 90-supergene panels for pathological response to the original cohort using unsupervised hierarchical clustering, and found, expectedly, the predictors to be highly accurate; the division yielded groups with different PFS, though not statistically significant (Table 1). To validate the pathological response signatures further, we applied them, using SVM, in an independent set of 18 patients treated with four cycles of neoadjuvant three-weekly single agent docetaxel prior to surgery, who had tumor biopsy before and 3 weeks after one chemotherapy cycle. Pathological response definition was similar to our original cohort. Consistent with the findings for the PFS predictors, T2 outperformed T1 signatures, with the AUC of ROC being 0.631 (95% CI 0.350-0.912) for T2 compared to 0.462 (95% CI 0.190-0.733) and 0.446 (95% Cl 0.161-0.731) for TΔ and T1 respectively. T2 signatures accurately identified 77% of poor pathological responders, compared to 54% for both T1 and TΔ (FIG. 2c-d).
An independent dataset comprising of 18 breast cancer patients treated with pre-operative chemotherapy followed by surgery as part of another clinical protocol at our institution was used to validate the gene expression signatures that predict for pathological response. Validation was performed using SVM. In brief, patients from this independent dataset had cT3-T4 breast tumors and were treated with four cycles of pre-operative single agent docetaxel every three weeks. […] Patients underwent lumpectomy or mastectomy and axillary clearance after chemotherapy, and were classified as good (5/18) and poor (13/18) pathological responders using the same criteria as described in our primary cohort. This dataset was not used to validate the PFS signatures as the median follow-up was short at 18.5 months, and only 5/18 had progressed at the time of analysis.

Assay [1] relates to locally advanced breast cancers. Particulars: weekly doxorubicin 14 mg/m^2 for 16 weeks, n=20; cited from earlier work.
Where [2] appears, read: four cycles of docetaxel every three weeks, then surgery, n=18.

Take `CC(=O)O[C@@]12CO[C@@H]1C[C@H](O)[C@@]1(C)C(=O)[C@H](O)C3=C(C)[C@@H](OC(=O)[C@H](O)[C@@H](NC(=O)OC(C)(C)C)c4ccccc4)C[C@@](O)([C@@H](OC(=O)c4ccccc4)[C@H]21)C3(C)C` [docetaxel]: in the assay with cT3-T4 breast tumors (setting [2]), the good pathological responders was 5/18 and the poor pathological responders is 13/18. The “patients progressed at the time of analysis” value in the assay with cT3-T4 breast tumors (median follow-up 18.5 months) is listed as 5/18.
In the case of `COc1cccc2c1C(=O)c1c(O)c3c(c(O)c1C2=O)C[C@@](O)(C(=O)CO)C[C@@H]3O[C@H]1C[C@H](N)[C@H](O)[C@H](C)O1` [doxorubicin], in assay [1], the median relapse-free survival is recorded as 25 months and the patients relapsed is on record as 12/20.
